Data: ChEMBL document CHEMBL1126356, “Structure-activity relationships of the pyridazinone series of 5-lipoxygenase inhibitors” (Bioorg Med Chem Lett, 1992)
The source made the active and inactive calls. No cut-off for these calls is given here.

Assays:
[1] = target: T1, Polyunsaturated fatty acid 5-lipoxygenase (Homo sapiens, UniProt P09917); experiment: Inhibitory activity against 5-lipoxygenase.
T1 sequence (P09917 whole entry): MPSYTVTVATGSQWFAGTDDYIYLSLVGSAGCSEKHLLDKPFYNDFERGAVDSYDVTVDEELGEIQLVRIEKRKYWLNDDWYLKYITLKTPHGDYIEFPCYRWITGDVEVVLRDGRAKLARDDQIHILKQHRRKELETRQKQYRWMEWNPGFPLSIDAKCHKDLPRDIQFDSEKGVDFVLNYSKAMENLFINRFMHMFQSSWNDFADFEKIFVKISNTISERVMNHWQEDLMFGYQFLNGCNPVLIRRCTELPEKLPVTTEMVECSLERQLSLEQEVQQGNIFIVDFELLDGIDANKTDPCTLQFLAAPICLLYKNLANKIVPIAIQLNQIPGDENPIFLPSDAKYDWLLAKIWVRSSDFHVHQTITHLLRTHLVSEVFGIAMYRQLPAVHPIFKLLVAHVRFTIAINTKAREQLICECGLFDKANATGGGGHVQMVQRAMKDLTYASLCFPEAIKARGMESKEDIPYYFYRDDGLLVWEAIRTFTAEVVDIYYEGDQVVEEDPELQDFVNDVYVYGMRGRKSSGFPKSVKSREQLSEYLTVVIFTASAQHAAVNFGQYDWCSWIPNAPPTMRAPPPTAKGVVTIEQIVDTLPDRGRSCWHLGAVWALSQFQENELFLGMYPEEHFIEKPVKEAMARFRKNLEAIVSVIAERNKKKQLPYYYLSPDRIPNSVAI

[2] = target: T2, Polyunsaturated fatty acid 5-lipoxygenase (Homo sapiens) (UniProt P09917); experiment: In vitro inhibition of 5-Lipoxygenase; Inactive.
T2 sequence (whole entry): T1 sequence (P09917 whole entry)

[3] = target: T2, Polyunsaturated fatty acid 5-lipoxygenase (Homo sapiens); experiment: Inhibitory Activity against 5-Lipoxygenase at concentration 32 uM was determined
[4] = target: T1, Polyunsaturated fatty acid 5-lipoxygenase; experiment: Inhibitory Activity against 5-Lipoxygenase was determined; IA=Inactive
[5] = target: T2, Polyunsaturated fatty acid 5-lipoxygenase (Homo sapiens); experiment: Inhibitory Activity against 5-Lipoxygenase at 30 uM was determined; Weakly active
[6] = target: T1, Polyunsaturated fatty acid 5-lipoxygenase; experiment: Inhibitory Activity against 5-Lipoxygenase was determined; NA=No significant inhibitory activity up to 300 uM
[7] = target: T1, Polyunsaturated fatty acid 5-lipoxygenase; experiment: Inhibitory Activity against 5-Lipoxygenase was determined; IA=Inactive at concentrations less than 32 uM
[8] = system: Rattus norvegicus; experiment: Compound was tested for in vivo potency in the rat anaphylaxis assay; type: functional

Row | IC50 [1] [µM] | Activity [2] | SMILES | other results
1 | 79 |  | O=C1CCCN(c2ccc(Cl)cc2)N1 | 
2 | 3.7 |  | O=C1CCN(c2ccccc2Cl)N1 | 
3 | 39 |  | CCc1ccccc1N1CCCC(=O)N1 | 
4 | 3.5 |  | Cc1ccc(N2CCC(=O)N2)cc1 | 
5 | 0.73 |  | O=C1CCN(c2cccc(Cl)c2)N1 | 
6 |  | inactive | O=C1CCC(c2ccccc2)NN1 (stereo unspecified) | 
7 | 1.1 |  | O=C1CCN(c2ccc(Cl)cc2)N1 | 
8 | 23 |  | CCCCCCCCN1CCCC(=O)N1 | 
9 |  | inactive | O=C1CCCN(Cc2ccccc2)N1 | 
10 | 99 |  | O=C1CCCN(c2ccccc2Cl)N1 | 
11 | 5.5 |  | O=C1CCCN(c2cccc(F)c2)N1 | 
12 |  | inactive | O=C1CCCN(C2CCCCC2)N1 | 
13 | 204 |  | COc1ccccc1N1CCCC(=O)N1 | 
14 | 15 |  | CC(C)(C)C(=O)c1cccc(N2CCCC(=O)N2)c1 | 
15 |  | inactive | O=C1CCCC(c2ccccc2)=N1 | 
16 |  | inactive | O=C1CCCNN1 | 
17 |  |  | O=C1CCCCCN(c2ccccc2)N1 | inhibition [3]: 8%
18 | 1.8 |  | O=C1CCCN(c2cccc(Br)c2)N1 | 
19 |  | inactive | c1ccc(N2CCCCN2)cc1 | 
20 | 57 |  | Cc1ccccc1N1CCCC(=O)N1 | 
21 | 125 |  | CCc1ccc(N2CCCC(=O)N2)cc1 | 
22 | 2.5 |  | O=C1CCCN(c2cccc(Cl)c2)N1 | 
23 |  | inactive | O=C1CCCN(c2ccccc2)N1C(=O)c1ccccc1 | 
24 |  |  | CCOC(=O)CCCCCN(N)c1ccccc1 | IC50 [4]: Not Active
25 | 1.3 |  | Cc1cccc(N2CCC(=O)N2)c1 | 
26 | 3 |  | CCc1cccc(N2CCCC(=O)N2)c1 | 
27 |  | inactive | CC1=NN(c2ccccc2)C(=O)CC1 | 

Row | IC50 [1] [µM] | Activity [2] | SMILES | other results
28 |  | inactive | C1=NN(c2ccccc2)CCC1 | 
29 | 3.4 |  | Cc1cccc(N2CCCC(=O)N2)c1 | 
30 |  | inactive | O=C1CCCC(c2ccccc2)N1 (stereo unspecified) | 
31 |  |  | CCOC(=O)CCCCN(N)c1ccccc1 | IC50 [4]: Not Active
32 |  | inactive | CCCCCN1CCCC(=O)N1 | 
33 |  | inactive | O=C1CCCN(c2ccccc2)N1c1ccccc1 | 
34 | 53 |  | O=C1CCCN(c2cccc(CO)c2)N1 | 
35 | 6.7 |  | COc1cccc(N2CCCC(=O)N2)c1 | 
36 |  | inactive | O=C1CCC(c2ccccc2)=NN1 | 
37 | 5.6 |  | CCOC(=O)c1cccc(N2CCCC(=O)N2)c1 | 
38 | 19 |  | CC(=O)c1cccc(N2CCCC(=O)N2)c1 | 
39 | 8.2 |  | Cc1ccccc1N1CCC(=O)N1 | 
40 |  |  | O=C1CCC(=O)N(c2ccccc2)N1 | inhibition [5]: 24%
41 |  | inactive | O=C1CCCN(c2ccccc2)C1 | 
42 |  |  | O=C1CCCN(c2cccc(C(=O)O)c2)N1 | IC50 [6]: Not Active
43 |  | inactive | CN1C(=O)CCCN1c1ccccc1 | 
44 |  |  | O=C1CCCCN(c2ccccc2)N1 | IC50 [7]: Not Active
45 | 156 |  | COc1ccc(N2CCCC(=O)N2)cc1 | 
46 |  | inactive | O=C1CCCN(C(=O)c2ccccc2)N1 | 
47 | 6 |  | CCCCCCCCCCCCN1CCCC(=O)N1 | 
48 |  | inactive | CCC(=O)N1C(=O)CCCN1c1ccccc1 | 
49 | 277 |  | Cc1ccc(N2CCCC(=O)N2)cc1 | 
50 | 5.2 |  | O=C1CCCN(c2cccc(C(F)(F)F)c2)N1 | 
51 | 9.3 |  | N#Cc1cccc(N2CCCC(=O)N2)c1 | ED50 [8]: 23 mg/kg
52 | 52 |  | CCCC(=O)NNc1ccccc1 | 
53 | 3.8 |  | O=C1CCCN(c2ccccc2)N1 | 
54 |  | inactive | CC1CCC(=O)N(c2ccccc2)N1 (stereo unspecified) | 

Row | SMILES | IC50 [1] [µM] | Activity [2] | other results
55 | CC(=O)NNc1ccccc1 | 65 |  | 
